Measurements from patent US8513233B2, “Pyrimidinyl-propionic acid derivatives and their use as PPAR agonists” (Shanghai Institute of Materia Medica, CAS, priority 2007, dated 2013).

What was measured:
PPAR-γ = biological target: T1, PPAR-γ (Homo sapiens, UniProt P37231); assay: Transient transfection and transcription assay (luciferase reporter, U2OS cells); format: cell-based; settings: 24 h treatment
T1 construct: expressed in transfected cells; host or cells: U2OS cells, transiently transfected with pcDNA3.1 expression vectors (FuGene6)
T1 sequence (P37231 1-505): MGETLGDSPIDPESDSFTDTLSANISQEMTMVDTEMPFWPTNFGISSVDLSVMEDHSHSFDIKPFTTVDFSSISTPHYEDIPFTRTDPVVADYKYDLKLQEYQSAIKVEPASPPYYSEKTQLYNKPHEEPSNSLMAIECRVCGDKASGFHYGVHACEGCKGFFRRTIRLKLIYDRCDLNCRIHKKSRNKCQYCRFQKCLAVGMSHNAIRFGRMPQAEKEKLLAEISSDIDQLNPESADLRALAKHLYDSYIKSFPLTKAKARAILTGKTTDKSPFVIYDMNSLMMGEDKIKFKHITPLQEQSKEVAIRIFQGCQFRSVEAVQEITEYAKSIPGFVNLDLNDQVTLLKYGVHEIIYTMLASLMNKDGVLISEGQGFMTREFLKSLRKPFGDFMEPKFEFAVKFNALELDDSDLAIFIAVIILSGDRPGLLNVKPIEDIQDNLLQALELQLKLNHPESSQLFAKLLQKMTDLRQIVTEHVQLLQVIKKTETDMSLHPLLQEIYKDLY
T1 sequence (P19793 1-462 partner): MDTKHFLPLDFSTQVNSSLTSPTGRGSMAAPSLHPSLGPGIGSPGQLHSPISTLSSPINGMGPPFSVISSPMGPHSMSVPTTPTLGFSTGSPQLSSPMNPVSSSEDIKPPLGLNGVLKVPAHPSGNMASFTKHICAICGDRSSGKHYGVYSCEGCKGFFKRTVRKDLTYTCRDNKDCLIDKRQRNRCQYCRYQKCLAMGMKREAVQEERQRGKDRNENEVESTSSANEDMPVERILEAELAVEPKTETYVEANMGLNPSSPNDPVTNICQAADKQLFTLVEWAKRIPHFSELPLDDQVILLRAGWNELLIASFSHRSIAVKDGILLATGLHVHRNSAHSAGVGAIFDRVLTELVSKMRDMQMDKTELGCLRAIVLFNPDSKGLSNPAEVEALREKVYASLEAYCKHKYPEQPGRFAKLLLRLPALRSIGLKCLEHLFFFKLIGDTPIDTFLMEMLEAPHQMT
Description: cDNAs for Human RXR, PPAR were obtained by RTPCR from the human liver or adipose tissues. Amplified cDNAs were cloned into pcDNA3.1 expression vector and the inserts were confirmed by sequencing. U2OS cells were cultured in McCoy's 5A with 10% heat-inactivated fetal bovine serum in a humidified 5% CO2 atmosphere at 37° C. Cells were seeded in 96-well plates the day before transfection to give a confluence of 50-80% at transfection. A total of 60 ng of DNA containing 10 ng of hRXR, 10 ng of pCMV Gal, 10 ng of nuclear receptor expression vectors and 30 ng of the corresponding reporters were cotransfected per well using FuGene6 transfection reagent according to the manufacturer's instructions. […] The final concentration of DMSO in culture medium was 0.1%. […] Luciferase activity was monitored using the luciferase assay kit according to the manufacturers instructions. Light emission was read in a Labsystems Ascent Fluoroskan reader. To measure galactosidase activity to normalize the luciferase data, 50 IL of supernatant from each transfection lysate was transferred to a new microplate. Galactosidase assays were performed in the microwell plates using a kit from Promega and read in a microplate reader. Compounds were tested in five concentrations ranging from 0.01 to 10 μM. […] The results were expressed as means (SD).

SPC-A1 = assay: Growth inhibition, modified MTT assay, SPC-A1; format: cell-based; settings: SPCA1, mean of 3 independent tests
Description: (§1) The growth inhibition was evaluated by the modified MTT assay. Briefly, the cells were seeded at 1×10^4 cells/well in 96-well plates (Falcon, Calif., USA), and incubated for 24 h in […] culture media with 10% FCS. The media were then replaced by serum-free medium. After 24 h, the media were placed in triplicate with grade concentrations of compounds. As controls, the cells were cultivated in DMEM/F12 only. The cells were then treated by MTT (Sigma, USA) assay, […] (5 g/L) for 4 h. After the removal of the supernatant, the purple-blue sediment was dissolved in 100 μL/well DMSO, and the optical densities were read on the multi-well scanning spectrophotometer (Labsystems Dragon, Finland) at 492 nm (A492). The growth inhibition rate (GIR) of the treated cells was calculated using Equation: GIR(%)={1−[A490/A490(control)]}×100% The results were also converted to IC50 (the compound concentration required for 50% growth inhibition of tumor cells), which were calculated by using the sigmoidal fitting model by the Origin 7.0 software (OriginLab, Northampton, Mass., USA). The mean IC50 was determined from the results of 3 independent tests.

T24 = assay: Growth inhibition, modified MTT assay, T24; format: cell-based; settings: Homo sapiens, T-24, mean of 3 independent tests
Description: as §1

HepG2 = assay: Growth inhibition, modified MTT assay, HepG2; format: cell-based; settings: Homo sapiens, mean of 3 independent tests
Description: as §1

MCF-7 = assay: Growth inhibition, modified MTT assay, MCF-7; format: cell-based; settings: Homo sapiens, MCF7; MCF-7, MTT, mean of 3 independent tests
Description: as §1

Compound	EC50 (PPAR-γ)	IC50 (SPC-A1)	IC50 (T24)	IC50 (HepG2)	IC50 (MCF-7)	melting point
CC(Cc1ccc(Oc2cc(N3CCN(Cc4ccc5c(c4)OCO5)CC3)nc(N)n2)cc1)(Oc1ccccc1)C(=O)O (centres unmarked) [Compound 5]	6.46 µM	> 50 µM	> 50 µM	> 50 µM	> 50 µM	190 to 192 °C
CC(Cc1ccc(Oc2cc(N3CCN(Cc4cccc(Cl)c4)CC3)nc(N)n2)cc1)(Oc1ccccc1)C(=O)O (centres unmarked) [Compound 11, 3-{4-{2-Amino-6-[4-(3-chloro-benzyl)-piperazin-1-yl]-pyrimidin-4-yloxy}-phenyl}-2-methyl-2-phenoxy-propionic acid]	5.13 µM	47.6 µM	> 50 µM	> 50 µM	40.6 µM	87 to 89 °C
CC(Cc1ccc(Oc2cc(N3CCN(Cc4cccc(F)c4)CC3)nc(N)n2)cc1)(Oc1ccccc1)C(=O)O (centres unmarked) [Compound 12, 3-{4-{2-Amino-6-[4-(3-fluoro-benzyl)-piperazin-1-yl]-pyrimidin-4-yloxy}-phenyl}-2-methyl-2-phenoxy-propionic acid]	6.46 µM	> 50 µM	> 50 µM	> 50 µM	> 50 µM	113 to 115 °C
CC(Cc1ccc(Oc2cc(N3CCN(Cc4ccc(Br)cc4)CC3)nc(N)n2)cc1)(Oc1ccccc1)C(=O)O (centres unmarked) [Compound 15, 3-{4-{2-Amino-6-[4-(4-bromo-benzyl)-piperazin-1-yl]-pyrimidin-4-yloxy}-phenyl}-2-methyl-2-phenoxy-propionic acid]	5.89 µM	45.3 µM	> 50 µM	> 50 µM	42.2 µM	112 to 114 °C
CC(Cc1ccc(Oc2cc(N3CCN(Cc4cccc(Br)c4)CC3)nc(N)n2)cc1)(Oc1ccccc1)C(=O)O (centres unmarked) [Compound 16, 3-{4-{2-Amino-6-[4-(3-bromo-benzyl)-piperazin-1-yl]-pyrimidin-4-yloxy}-phenyl}-2-methyl-2-phenoxy-propionic acid]	6.31 µM	37 µM	41 µM	48 µM	30 µM	119 to 120 °C
CC(Cc1ccc(Oc2cc(N3CCN(CC(=O)c4ccccc4)CC3)nc(N)n2)cc1)(Oc1ccccc1)C(=O)O (centres unmarked) [Compound 18, 3-{4-{2-Amino-6-[4-(2-oxo-2-phenyl-ethyl)-piperazin-1-yl]-pyrimidin-4-yloxy}-phenyl}-2-methyl-2-phenoxy-propionic acid]	6.46 µM	> 50 µM	> 50 µM	> 50 µM	> 50 µM	107 to 108 °C
CC(Cc1ccc(Oc2cc(N3CCN(c4ccccn4)CC3)nc(N)n2)cc1)(Oc1ccccc1)C(=O)O (centres unmarked) [Compound 19, 3-{4-[2-Amino-6-(4-pyridin-2-yl-piperazin-1-yl)-pyrimidin-4-yloxy]-phenyl}-2-methyl-2-phenoxy-propionic acid]	6.31 µM	42.5 µM	–	49.5 µM	> 50 µM	110 to 111 °C
CC(Cc1ccc(Oc2cc(N3CCN(Cc4ccccc4)CC3)ncn2)cc1)(Oc1ccccc1)C(=O)O (centres unmarked) [Compound 28, 3-{4-[6-(4-benzyl-piperazin-1-yl)-pyrimidin-4-yloxy]-phenyl}-2-methyl-2-phenoxy-propionic acid]	4.68 µM	28.6 µM	19.6 µM	29.3 µM	14.6 µM	107 to 109 °C
CC(Cc1ccc(Oc2cc(N3CCN(Cc4ccc([N+](=O)[O-])cc4)CC3)nc(N)n2)cc1)(Oc1ccccc1)C(=O)O (centres unmarked) [Compound 38, 3-{4-{2-Amino-6-[4-(4-nitro-benzyl)-piperazin-1-yl]-pyrimidin-4-yloxy}-phenyl}-2-methyl-2-phenoxy-propionic acid]	–	> 50 µM	40.3 µM	> 50 µM	45.3 µM	160 to 162 °C
CC(Cc1ccc(Oc2cc(N3CCN(Cc4cccnc4)CC3)nc(N)n2)cc1)(Oc1ccccc1)C(=O)O (centres unmarked) [Compound 39, 3-{4-[2-Amino-6-(4-pyridin-3-ylmethyl-piperazin-1-yl)-pyrimidin-4-yloxy]-phenyl}-2-methyl-2-ph enoxy-propionic acid]	–	43.5 µM	> 50 µM	> 50 µM	38.8 µM	141 to 143 °C
CC(Cc1ccc(Oc2cc(N3CCN(Cc4ccncc4)CC3)nc(N)n2)cc1)(Oc1ccccc1)C(=O)O (centres unmarked) [Compound 40, 3-{4-[2-Amino-6-(4-pyridin-4-ylmethyl-piperazin-1-yl)-pyrimidin-4-yloxy]-phenyl}-2-methyl-2-phenoxy-propionic acid]	–	46.5 µM	> 50 µM	> 50 µM	45.2 µM	137 to 138 °C
CC(Cc1ccc(Oc2cc(N3CCN(Cc4ccccc4)CC3)nc(Oc3ccccc3)n2)cc1)(Oc1ccccc1)C(=O)O (centres unmarked) [Compound 43, 3-{4-[6-(4-Benzyl-piperazin-1-yl)-2-phenoxy-pyrimidin-4-yloxy]-phenyl}-2-methyl-2-phenoxy-propionic acid]	1.62 µM	32.5 µM	> 50 µM	> 50 µM	33.5 µM	126 to 128 °C
CC(Cc1ccc(Oc2cc(Oc3ccccc3)nc(N3CCN(Cc4ccccc4)CC3)n2)cc1)(Oc1ccccc1)C(=O)O (centres unmarked) [Compound 44, 3-{4-[2-(4-Benzyl-piperazin-1-yl)-6-phenoxy-pyrimidin-4-yloxy]-phenyl}-2-methyl-2-phenoxy-propionic acid]	4.68 µM	14.1 µM	11.1 µM	35.2 µM	15.4 µM	135 to 137 °C
CC(Cc1ccc(Oc2cc(N3CCN(Cc4ccccc4)CC3)nc(NCc3ccccc3)n2)cc1)(Oc1ccccc1)C(=O)O (centres unmarked) [Compound 47, 3-{4-[2-Benzylamino-6-(4-benzyl-piperazin-1-yl)-pyrimidin-4-yloxy]-phenyl}-2-methyl-2-phenoxy-propionic acid]	6.31 µM	31.5 µM	> 50 µM	> 50 µM	22.8 µM	104 to 106 °C
CN(C)c1nc(Oc2ccc(CC(C)(Oc3ccccc3)C(=O)O)cc2)cc(N2CCN(Cc3ccccc3)CC2)n1 (centres unmarked) [Compound 49, 3-{4-[6-(4-Benzyl-piperazin-1-yl)-2-dimethylamino-pyrimidin-4-yloxy]-phenyl}-2-methyl-2-phenoxy-propionic acid]	2.95 µM	> 50 µM	> 50 µM	> 50 µM	> 50 µM	136 to 138 °C
